{
  "source": "paper PMC7164518",
  "about": "(Science (New York, N.y.), 2020)",
  "key": {"Thermodynamic solubility": {"assay": "Thermodynamic solubility", "format": "physicochemical", "conditions": "thermodynamic from solid"}, "[1]": {"system": "Middle East respiratory syndrome–coronavirus (MERS-CoV)", "conditions": "Huh7 cells; read-out: EC50 against MERS-CoV; cited from earlier work"}, "SARS-CoV": {"system": "SARS-CoV", "conditions": "various cell lines; cited from earlier work"}, "enteroviruses": {"system": "enteroviruses", "conditions": "various cell lines; cited from earlier work"}, "[2]": {"assay": "Binding to mouse plasma protein", "format": "in vitro ADME"}, "[3]": {"assay": "Pharmacokinetics in CD-1 mice, subcutaneous route", "format": "in vivo", "conditions": "for half-life / Cmax / MRT: plasma"}, "[4]": {"assay": "In vitro kinetic plasma solubility", "format": "physicochemical", "conditions": "plasma or biological fluid, kinetic from dmso stock"}, "in vitro [5]": {"assay": "in vitro", "conditions": "human, microsomes"}, "[6]": {"conditions": "human microsomes"}, "in vitro [7]": {"assay": "in vitro", "conditions": "mouse, microsomes"}, "[8]": {"assay": "Binding to human plasma proteins", "format": "in vitro ADME"}, "in vivo": {"assay": "in vivo", "conditions": "CD-1, mouse, lung, inhaled, 3 mg kg^−1"}, "MERS-CoV M^pro": {"biological_target": "MERS-CoV M^pro (Middle East respiratory syndrome-related coronavirus, UniProt K9N7C7)", "sequence (K9N7C7 3248-3553 limits assumed)": "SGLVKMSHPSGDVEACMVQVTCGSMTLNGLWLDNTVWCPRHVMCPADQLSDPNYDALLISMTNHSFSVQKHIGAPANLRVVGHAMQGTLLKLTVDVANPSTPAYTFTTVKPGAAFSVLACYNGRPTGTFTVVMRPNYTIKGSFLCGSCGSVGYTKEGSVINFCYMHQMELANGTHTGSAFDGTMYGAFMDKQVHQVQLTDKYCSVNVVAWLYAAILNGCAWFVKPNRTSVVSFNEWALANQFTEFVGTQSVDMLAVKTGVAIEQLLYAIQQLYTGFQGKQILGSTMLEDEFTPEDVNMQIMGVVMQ", "assay": "biochemical"}, "SARS-CoV-2": {"system": "SARS-CoV-2", "assay": "SARS-CoV-2 replication in human Calu-3 lung cells (viral RNA by qPCR)", "format": "cell-based", "conditions": "MOI 0.05", "experimental": "(A) Calu-3 cells were infected with SARS-CoV-2 using a multiplicity of infection (MOI) of 0.05. […] DMSO was used as vehicle control (black bar). Total RNA was isolated from cell lysates, and viral RNA content was analyzed by quantitative polymerase chain reaction. Data are means ± SD of two biological experiments with two technical replicates each."}, "SARS-CoV replicon": {"system": "SARS-CoV replicon", "assay": "microbe, parasite or virus in culture", "format": "cell-based", "conditions": "Severe acute respiratory syndrome coronavirus, read-out: EC50 inhibition of RNA replication in SARS-CoV replicon"}, "SARS-CoV-2 M^pro": {"biological_target": "SARS-CoV-2 M^pro (Severe acute respiratory syndrome coronavirus 2, UniProt P0DTD1)", "assay": "Inhibition of purified recombinant SARS-CoV-2 Mpro", "format": "biochemical", "conditions": "14b relative to 13b"}},
  "note": "Like-named read-outs stand apart in the source and are kept apart here.",
  "data": [
    {"smiles": "O=C(/C=C/c1ccccc1)N[C@@H](CC1CCCCC1)C(=O)N[C@@H](C[C@@H]1CCNC1=O)C(=O)C(=O)NCc1ccccc1", "note": "[Compound 11r, reference compound]", "values": [
      {"measurement": "solubility thermodynamic", "setting": "Thermodynamic solubility", "result": 41, "unit": "µM"},
      {"measurement": "EC50", "setting": "[1]", "result": 0.0004, "unit": "µM"},
      {"measurement": "EC50 values against SARS-CoV", "setting": "SARS-CoV", "result": "low-μM"},
      {"measurement": "EC50 values against a whole range of enteroviruses", "setting": "enteroviruses", "result": "low-μM"},
      {"measurement": "binding to mouse plasma protein", "setting": "[2]", "result": 99, "unit": "%"},
      {"measurement": "half-life", "setting": "[3]; CD-1, mouse, mice", "result": 0.3, "unit": "h"},
      {"measurement": "solubility kinetic", "setting": "[4]", "result": 6, "unit": "µM"}
    ]},
    {"smiles": "CC(C)(C)OC(=O)Nc1cccn([C@@H](CC2CCCCC2)C(=O)N[C@@H](C[C@@H]2CCNC2=O)C(=O)C(=O)NC2CC2)c1=O", "note": "[Compound 13a, tert-butyl (1-((S)-3-cyclohexyl-1-(((S)-4-(cyclopropylamino)-3,4-dioxo-1-((S)-2-oxopyrrolidin-3-yl)butan-2-yl)amino)-1-oxopropan-2-yl)-2-oxo-1,2-dihydropyridin-3-yl)carbamate]", "values": [
      {"measurement": "solubility thermodynamic", "setting": "Thermodynamic solubility", "result": 530, "unit": "µM"},
      {"measurement": "microsomal CLint", "setting": "in vitro [5]", "result": 21, "unit": "µL/min/mg"},
      {"measurement": "residual compound remaining metabolically stable after 30 min", "setting": "[6]", "result": "~60", "unit": "%"},
      {"measurement": "binding to mouse plasma protein", "setting": "[2]", "result": 97, "unit": "%"},
      {"measurement": "half-life", "setting": "[3]; CD-1, mouse, mice", "result": 1, "unit": "h"},
      {"measurement": "time compound stayed in plasma", "setting": "[3]; CD-1 mice, 20 mg/kg", "result": "up to 4 hours"},
      {"measurement": "time compound was excreted via urine", "setting": "[3]; CD-1 mice, 20 mg/kg", "result": "up to 24 hours"},
      {"measurement": "concentration at 24 hours", "setting": "[3]; mouse, bronchio-alveolar lavage fluid (BALF), sc, CD-1 mice, 20 mg/kg, read-out: concentration in bronchio-alveolar lavage fluid (BALF) at 24 hours", "result": 52.7, "unit": "ng/mL"},
      {"measurement": "concentration at 24 hours", "setting": "[3]; mouse, lung, sc, CD-1 mice, 20 mg/kg, read-out: concentration in lung tissue at 24 hours", "result": 135, "unit": "ng/g"},
      {"measurement": "Cmax", "setting": "[3]; mouse, sc, CD-1 mice, 20 mg/kg, read-out: maximum plasma concentration (Cmax)", "result": 334, "unit": "ng/mL"},
      {"measurement": "MRT", "setting": "[3]; mouse, sc, CD-1 mice, 20 mg/kg, read-out: mean residence time", "result": "~1.6", "unit": "h"},
      {"measurement": "microsomal CLint", "setting": "in vitro [7]", "result": 32, "unit": "µL/min/mg"},
      {"measurement": "solubility kinetic", "setting": "[4]", "result": 112, "unit": "µM"}
    ]},
    {"smiles": "CC(C)(C)OC(=O)Nc1cccn([C@@H](CC2CC2)C(=O)N[C@@H](C[C@@H]2CCNC2=O)C(=O)C(=O)NCc2ccccc2)c1=O", "note": "[Compound 13b]", "values": [
      {"measurement": "binding to human plasma proteins", "setting": "[8]", "result": 90, "unit": "%"},
      {"measurement": "concentration at 24 hours", "setting": "in vivo", "result": 33, "unit": "ng/g"},
      {"measurement": "IC50", "setting": "MERS-CoV M^pro", "result": "0.58 ± 0.22", "unit": "µM"},
      {"measurement": "EC50", "setting": "SARS-CoV-2; Severe acute respiratory syndrome coronavirus 2, Calu-3, viral RNA by qPCR, read-out: EC50 in human Calu-3 cells infected with SARS-CoV-2", "result": "4 to 5", "unit": "µM"},
      {"measurement": "Cmax as percent of the Cmax detected for 13a", "setting": "[3]; 13b 3 mg kg^−1 vs 13a 20 mg/kg", "result": "around 37%"},
      {"measurement": "concentration at 4 hours", "setting": "[3]; mouse, lung, sc, CD-1 mice, 3 mg kg^−1, 4 hours, read-out: lung tissue level after 4 hours", "result": "~13", "unit": "ng/g"},
      {"measurement": "half-life", "setting": "[3]; mouse, sc, CD-1 mice, 3 mg kg^−1", "result": 1.8, "unit": "h"},
      {"measurement": "Cmax", "setting": "[3]; mouse, sc, CD-1 mice, 3 mg kg^−1, read-out: maximum plasma concentration (Cmax)", "result": 126, "unit": "ng/mL"},
      {"measurement": "MRT", "setting": "[3]; mouse, sc, CD-1 mice, 3 mg kg^−1, read-out: mean residence time", "result": 2.7, "unit": "h"},
      {"measurement": "EC50", "setting": "SARS-CoV replicon", "result": "1.75 ± 0.25", "unit": "µM"}
    ]},
    {"smiles": "Nc1cccn([C@@H](CC2CC2)C(=O)N[C@@H](C[C@@H]2CCNC2=O)C(=O)C(=O)NCc2ccccc2)c1=O", "note": "[Compound 14b]", "values": [
      {"measurement": "activity in human Calu-3 cells infected with SARS-CoV-2", "setting": "SARS-CoV-2; 5, 10, 20 or 40 μM", "result": "almost inactive"},
      {"measurement": "weakening of inhibitory potency on removing the Boc group (factor)", "setting": "SARS-CoV-2 M^pro", "result": "~ 2"}
    ]}
  ]
}
